This is an account of results in patent publication US20250108049A1, “COMPOUNDS FOR TREATING MDS-ASSOCIATED ANEMIAS AND OTHER CONDITIONS” (Agios Pharmaceuticals, Inc., priority 2021, published 2025).

The subject of assay [1] is Polg^D257A mice. In words: Bone marrow aspirate flow cytometry of erythroblast populations in Polg^D257A mice (Example 3). The class given is in vivo, mouse. The following applies: 10 mg/kg/day in chow, 8 months of treatment. Here is the method: (§1) To determine the impacts of mitapivat and Compound 1 under these conditions, bone marrow aspirates from diseased mice were collected and populations of erythroblasts were evaluated at various stages of maturation using flow cytometry. Hemoglobin (Hb), red blood cell (RBC) counts, and reticulocyte fractions were also monitored every 4 weeks in whole blood on a Sysmex XN-1000™ hematology analyzer to determine if disease burden and impact on erythroblast maturation could be detected in the periphery. Pharmacodynamics and pharmacokinetic analysis were also performed to confirm appropriate exposure and target engagement of the compounds (data not shown).
(§2) A second experiment was performed using the Polg^D257A model (RRID:IMSR_JAX:017341) from Example 2. In this experiment 20 mice (10 males and 10 females per group) were dosed with either mitapivat or Compound 1 in chow as described in Example 2. For the mitapivat group, the compound was dosed at 200 mg/kg/day and for the Compound 1 group, Compound 1 was dosed at 10 mg/kg/day. Treatment was started when the mice were 4 months of age and was continued for 8 months (rolling enrollment). Following 8 months of treatment (at 12 months of age), an evaluation of bone marrow aspirates was conducted by flow cytometry using well established markers of erythropoiesis following a modified procedure outlined in Suragani et al., Nat Med 2014 Apr; 20(4):408-14. Bone marrow aspirates were treated with ACK lysis buffer for 3 minutes to remove red blood cells from the sample. Remaining cells were washed and maintained in PBS+5% FBS throughout the remainder of the procedure. The flow cytometry panel included live/dead (Indol), B220 (BV421), CD5 (BV421), CD71 (AF700), and Terl19 (PE) antibodies. The gating strategy used for analysis was as follows: Live/B220-CD5-/Terl19+. Ter119+cells were then gated into populations using CD71 and FSC as outlined in the literature (Suragani et al., Nat Med 2014 Apr; 20(4):408-14; FIG. 6E). […] FIG. 6D. Flow cytometry data on the mitapivat treated Polg^D257A mice is not available as the mitapivat treatment arm is not yet completed.

For assay [2], the system named is Polg^D257A mice. In words: Whole blood Hb, RBC and reticulocyte analysis in Polg^D257A mice, second experiment (Example 3). The class given is in vivo, mouse. Here is the method: as §1, §2
Data not shown. After 24 weeks (6 months thus far) of treatment, mitapivat increased Hb and RBC counts by 7% in Polg^D257A mice, with no change in reticulocytes. Data not shown. After 32 weeks of treatment with Compound 1 no change in Hb, RBC count, or reticulocyte fraction was observed. Data not shown.

Assay [3] concerns NHD13 mice. In words: Bone marrow aspirate flow cytometry of erythroblast populations in NHD13 mice (Example 5). The format is in vivo, mouse. The following applies: NHD13 mice aged 4 months, in chow, 20 weeks of treatment; mild disease in model. Here is the method:
as §1
A NUP98-HOXD13 (NHD13) transgenic MDS associated mouse model will also be used to assess the therapeutic benefit of disclosed compounds. See e.g., Lin et al., Blood 2005 Jul 1;106(1):287-95 and Suragani et al., Nat Med 2014 Apr;20(4):408-14. […] A full blood panel and erythroid precursor analysis will be conducted after 2 months of treatment, and results will be analyzed.
Using Example 4, 20 NHD13 mice (10 males and 10 females per group; RRID:IMSR_JAX:010505) aged 4 months were randomized into treatment groups using matched distribution of hemoglobin levels. […] After 20 weeks of treatment with either mitapivat or Compound 1, bone marrow aspirates of the NHD13 mice were collected as described above and analyzed by flow cytometry. […]
(In flow cytometry, cells or beads pass a laser one at a time.)

The test system of assay [4] is NHD13 mice. In words: Whole blood hematology in NHD13 mice (Example 5). To be noted: NHD13 mice aged 4 months, in chow, 20 weeks of treatment. The format is in vivo, mouse. Here is the method: as §1
A NUP98-HOXD13 (NHD13) transgenic MDS associated mouse model will also be used to assess the therapeutic benefit of disclosed compounds. See e.g., Lin et al., Blood 2005 Jul 1;106(1):287-95 and Suragani et al., Nat Med 2014 Apr;20(4):408-14. Male and female NHD13 mice aged to 4 or 10 months will be administered a disclosed compound in chow, ad libitum (e.g., mitapivat or Compound 1) daily. A full blood panel and erythroid precursor analysis will be conducted after 2 months of treatment, and results will be analyzed.
Using Example 4, 20 NHD13 mice (10 males and 10 females per group; RRID:IMSR_JAX:010505) aged 4 months were randomized into treatment groups using matched distribution of hemoglobin levels. Mice were dosed with either mitapivat or Compound 1 for 20 weeks in the same manner (in chow, ad libitum) as Example 3. After 20 weeks of treatment with either mitapivat or Compound 1, bone marrow aspirates of the NHD13 mice were collected as described above and analyzed by flow cytometry. […] In addition, a significant decline in survival of vehicle control NHD13 mice as previously reported (Lin et al., […] 2005 July;106(1)) was not observed. […] This mild state of disease was also supported in whole blood analysis. […] Data not shown.

The subject of assay [5] is Polg^D257A mice. In words: Mitapivat in Polg^D257A MDS-associated anemia mouse model, whole blood hematology (Example 2). The class given is in vivo. To be noted: 200 mg/kg/day in chow. Here is the method: as §1
Mitochondrial disruption has been linked to the development of anemia in MDS patients (see, e.g., Chen et al. Blood. 2009; 114(19):4045-53). Mitochondria play a key role in regulation of apoptosis, which is a mechanism highlighted in defunct hematopoiesis of MDS (Green et al., Science 1998; 281(5381):1309-1312, Kerbauy et al., Exp Hematol. 2007; 35(11): 1739-1746; Ahlqvist et al. Nature Communications. 2015; 6:6494). B6.12957(Cg)-Polg^tm1prol/J, or Polg^D257A, is a mouse model with a mutation in the N-terminus of the DNA polymerase γ gene that results in impaired proofreading activity in the mitochondria, leading to increased mtDNA mutagenesis (Jackson Laboratory #017341). See, Chen et al. Blood. 2009; 114(19):4045-53 and Ahlqvist et al. Nature Communications. 2015; 6:6494. […] Here, we used the Polg^D257A mouse model to evaluate the therapeutic benefit of a PK activator, mitapivat, in this mechanism of anemia.
Male and female Polg^D257A mice were administered 200 mg/kg/day mitapivat in chow, ad libitum, for 18 weeks starting at 7.5 months of age, once anemic phenotype was established by hematology analysis. Whole blood was collected via tail vein into EDTA tubes and analyzed using a Sysmex XN-2000™ hematology system according to manufacturer protocol. Hemoglobin, red blood cells (RBCs), and reticulocytes were monitored every 2-4 weeks to track disease progression and severity. After 18 weeks of mitapivat treatment, RBC counts were elevated by 45% and hemoglobin levels were increased by 2.4 g/dL in mitapivat treated mice compared to untreated mutants.
See FIGS. 1A-D and FIGS. 2A-D (C57BL/6J mice were used as controls). […] Commensurate with increased hemoglobin was a marked decrease (about 30%) in reticulocyte count.

The mark [6] stands for this setting: 10 mg/kg/day in chow, after 32 weeks of treatment.
[7] abbreviates: male and female Polg^D257A mice, after 18 weeks.
Where [8] appears, read: 200 mg/kg/day in chow, after 24 weeks of treatment.

On to `Cn1c2nc(Cc3cc[nH]n3)sc2c2cnn(Cc3cccc(N)n3)c(=O)c21` [Compound 1, 2-((1H-pyrazol-3-yl)methyl)-6-((6-aminopyridin-2-yl)methyl)-4-methyl-4H-thiazolo[5′,4′:4,5]pyrrolo[2,3-d]pyridazin-5(6H)-one], for which, in the assay on Polg^D257A mice [1], the “late basophilic and polychromatic erythroblasts (EryB) in bone marrow” value is “increase”; the “orthochromatic and reticulocytes (EryC) in bone marrow” value is on record as “increase”. Also, the “ProE (proerythrocyte) population in bone marrow” value with Polg^D257A mice [1] (compared to vehicle control Polg^D257A mice) is “no additional impact”. Besides, the “basophilic erythroblasts (EryA) in bone marrow” value with Polg^D257A mice [1] (vs vehicle control Polg^D257A mice) was “reduction”. In the assay on Polg^D257A mice [2] (setting [6]), the “change in Hb” value is recorded as “no change”, the “change in RBC count” value is recorded as “no change” and the “change in reticulocyte fraction” value is “no change”. Further, the “therapeutic benefit in bone marrow flow cytometry data (erythroblast populations)” value in the assay with NHD13 mice [3] was “difficult to detect any therapeutic benefit”. In the assay with NHD13 mice [4], the “reduction in reticulocyte count” value is 25%, the “reduction in reticulocyte fraction (FIG. 8C)” value is reported as 20%, the “response in Hb compared to vehicle controls (FIG. 8A)” value is given as “minimal response” and the “response in RBC count compared to vehicle controls (FIG. 8B)” value is “minimal response”.
As to `O=C(c1ccc(NS(=O)(=O)c2cccc3cccnc23)cc1)N1CCN(CC2CC2)CC1` [mitapivat, N-(4-(4-(cyclopropylmethyl)piperazine-1-carbonyl)phenyl)quinoline-8-sulfonamide], in the assay with Polg^D257A mice [5] (Polg^D257A mice), the “decrease in reticulocyte count (FIG. 2C)” value is given as “about 30%”. Moreover, in the assay on Polg^D257A mice [5] (Polg^D257A mice, after 18 weeks), the “frequency of reticulocytes decreased” value amounted to 30%. For the same molecule, in the assay on Polg^D257A mice [5] (female Polg^D257A mice, after 18 weeks), the “therapeutic benefit (hemoglobin), female mutators” value is listed as “responded after 18 weeks”. Also, the “increase in hemoglobin, male mutators” value in the assay on Polg^D257A mice [5] (male Polg^D257A mice, starting at 6-weeks post-treatment) lay within 1 to 2 g/dL. In the assay on Polg^D257A mice [5] (setting [7]), the “RBC counts elevated compared to untreated mutants” value is on record as 45% and the “hemoglobin levels increased compared to untreated mutants” value was found to be 2.4 g/dL. In the assay with Polg^D257A mice [2] (setting [8]), the Hb increased was 7%, the RBC counts increased came out at 7% and the change in reticulocytes result is given as “no change”. In the assay on NHD13 mice [3], the “therapeutic benefit in bone marrow flow cytometry data (erythroblast populations)” value is reported as “difficult to detect any therapeutic benefit”. In the assay on NHD13 mice [4], the “reduction in reticulocyte count” value was determined as 15%, the “reduction in reticulocyte fraction (FIG. 8C)” value is on record as 20%, the “response in Hb compared to vehicle controls (FIG. 8A)” value was “minimal response” and the “response in RBC count compared to vehicle controls (FIG. 8B)” value was “minimal response”.
